We go through one molecule from US20130071400A1, “LINGO binding molecules and Pharmaceutical Use Thereof” (NOVARTIS AG, priority 2006, published 2013).

The structures appear in SMILES notation.

The test has as its system postnatal day 7 rat cerebellar granule neurons (CGN). Description: Neurite outgrowth inhibition assay on spinal cord myelin. It counts as cell-based. The method, then:
A) P7 CGN cells are incubated for 16 hr on wells coated without spinal cord myelin (no SC, white bars) or wells coated with spinal cord myelin in the absence (SC, red bars) or presence of anti-LINGO-1 IgG4 antibodies, a control anti-lysozyme IgG4 antibody 3207 (green bars) or […] of the ROCK inhibitor Y27632 (yellow bar). […] The experiment is performed in three 96 well plates with an SC and no SC condition per plate to which the effects of the antibodies on that plate are compared and mean neurite length per neuron (μm) is calculated for 500 neurons per well in replicates of 10. The percentage inhibition (white text) is calculated as the percentile difference in mean neurite length/neuron between cells plated on wells coated with and without SC. The percentage disinhibition (black italic text) is calculated as the difference in mean neurite length between cells plated on SC in the presence and absence of anti-LINGO-1 antibody as a percentile of the difference between cells plated on wells coated with and without SC. *p<0.05, **p<0.01 (one way ANOVA, Holm-Sidak comparison to mean neurite length/neuron for cells plated on spinal cord myelin in the absence of antibody).
A) P7 CGN cells are incubated for 8 hr on wells coated without spinal cord myelin (no SC, white bars) or wells coated with spinal cord myelin in the absence (SC, red bars) or presence of anti-LINGO-1 IgG4 antibodies or a control anti-lysozyme IgG4 antibody 3207. The experiment is performed in three 96 well plates with an SC and no SC condition per plate to which the effects of the antibodies on that plate are compared and mean neurite length per neuron (μm) is calculated for 500 neurons per well in replicates of 10. The percentage inhibition (white text) and disinhibition (black italic text) is calculated as above. **p<0.01 (one way ANOVA, Holm-Sidak comparison to mean neurite length/neuron for cells plated on spinal cord myelin in the absence of antibody).
P7 CGN cells are incubated for 8 hr on wells coated without spinal cord myelin (no SC) or wells coated with spinal cord myelin in the absence (SC) or presence of the indicated concentrations of anti-LINGO-1 IgG4 antibodies 4784 or 4785, a control anti-lysozyme IgG4 antibody 3207 or 1 μM Y27632 (ROCK). The experiment is performed in three 96 well plates with an SC and no SC condition per plate to which the effects of the antibodies on that plate are compared and mean neurite length per neuron (μm) is calculated for 500 neurons per well in replicates of 10. The percentage inhibition (white text) and disinhibition (black italic text) is calculated as above. *p<0.05, **p<0.01 (one way ANOVA, Holm-Sidak comparison to mean neurite length/neuron for cells plated on spinal cord myelin in the absence of antibody). […]

In the case of `C[C@@H](N)[C@H]1CC[C@H](C(=O)Nc2ccncc2)CC1` [Y27632, reference compound], the “disinhibition of spinal cord myelin” value (1 μM Y27632, 8 hr incubation (FIG. 4)) was 65-74%. Besides, the “disinhibition of spinal cord myelin (neurite outgrowth)” value (1 μm Y27632, 16 hr incubation (FIG. 2), compared to 4784 and 4785) was “greater level of disinhibition”.
